# Values of other authors in patent USRE39480E1, “Chromium/biotin treatment of type II diabetes” (Nutrition 21, Inc., priority 1997, dated 2007).
# Experiments:
# [1] = system: rats made diabetic by injection with streptozotocin; conditions: high-dose oral or parenteral biotin
# [2] = system: diabetic KK mice; conditions: high-dose oral or parenteral biotin
# [3] = oral biotin intakes of up to 200 mg daily
# [4] = system: poorly-controlled type II diabetics; conditions: 3 mg biotin three times per day
# [5] = system: Type I diabetics; conditions: daily oral dose of 16 mg; insulin injections temporarily discontinued
# [6] = system: pre-diabetic Otsuka Long-Evans Tokushima Fatty rats; conditions: high-dose oral or parenteral biotin
# [7] = system: individuals with Type II diabetes; conditions: 1,000 μg chromium per day as chromic tripicolinate
# [8] = system: Type II diabetes; conditions: doses which provide between 50 and 500 μg of chromium
Compound,oral glucose tolerance [1],oral glucose tolerance [2],side effects or toxicities [3],fasting insulin levels [4],glucose levels [4],pancreatic beta cell function [4],fasting plasma glucose levels [5],oral glucose tolerance [6],decrease in glycosylated hemoglobin [7],change in glycosylated hemoglobin [8],glycosylated hemoglobin value obtained after chromic tripicolinate treatment ([8]; still within the diabetic range)
O=C(O)CCCC[C@@H]1SC[C@@H]2NC(=O)N[C@@H]21 [biotin],improve oral glucose tolerance,improve oral glucose tolerance,no side effects or toxicities were noted,did not decline,sharp decline,improved pancreatic beta cell function,lowered fasting plasma glucose levels,improve oral glucose tolerance,–,–,–
chromic tripicolinate,–,–,–,–,–,–,–,–,30%,small decrease,10.4%
